System: LEFCH
Assay: Post-emergence foliar-applied weed control, greenhouse (Example I)
Format: in vivo, Leptochloa chinensis (L.) Nees
From the text: Evaluation of Post-emergence Foliar-Applied Herbicidal Mixtures for Weed Control in Direct Seeded Rice
Seeds or nutlets of the desired test plant species were planted in a soil matrix prepared by mixing a loam or sandy loam soil (e.g., 28.6 percent silt, 18.8 percent clay, and 52.6 percent sand, with a pH of about 5.8 and an organic matter content of about 1.8 percent) and calcareous grit in an 80 to 20 ratio. The soil matrix was contained in plastic pots with a volume of 1 quart and a surface area of 83.6 square centimeters (cm^2). When required to ensure good germination and healthy plants, a fungicide treatment and/or other chemical or physical treatment was applied. The plants were grown for 8-22 days in a greenhouse with an approximate 14 h photoperiod which was maintained at about 29° C. during the day and 26° C. during the night. Nutrients (Peters Excel® 15-5-15 5-Ca 2-Mg and iron chelate) were applied in the irrigation solution as needed and water was added on a regular basis. Supplemental lighting was provided with overhead metal halide 1000-Watt lamps as necessary. The plants were employed for testing when they reached the first through fourth true leaf stage. […]
Treatment requirements were calculated based upon the rates being tested, the concentration of active ingredient or acid equivalent in the formulation, and a 12 mL application volume at a rate of 187 L/ha.
For treatments comprised of formulated compounds, measured amounts of compounds were placed individually in 25 mL glass vials and diluted in a volume of 1.25% (v/v) Agri-Dex® crop oil concentrated to obtain 12× stock solutions. […]
For treatments comprised of formulated and technical compounds, weighed amounts of the technical materials were placed individually in 25 mL glass vials and dissolved in a volume of 97:3 v/v acetone/DMSO to obtain 12× stock solutions, and measured amounts of the formulated compounds were placed individually in 25 mL glass vials and diluted in a volume of 1.5% (v/v) crop oil concentrate or water to obtain 12× stock solutions. […]

Structure (SMILES): COc1c(Cl)ccc(-c2nc(C(=O)O)c(Cl)c(N)c2F)c1F [Compound A Acid, 4-amino-3-chloro-6-(4-chloro-2-fluoro-3-methoxyphenyl)-5-fluoropyridine-2-carboxylic acid]
- Visual Weed Control (%) - 21 DAA LEFCH Obs (17.5 gae/ha): 10%
- Visual Weed Control (%) - 21 DAA LEFCH Obs (35 gae/ha): 60%

Source: US8841233B2, “Herbicidal compositions comprising 4-amino-3-chloro-5-fluoro-6-(4-chloro-2-fluoro-3-methoxyphenyl) pyridine-2-carboxylic acid or a derivative thereof and 4-hydroxyphenyl-pyruvate dioxygenase (HPPD) inhibitors” (Dow Agrosciences LLC, priority 2012, dated 2014)
